Reference: patent US20110294778A1, “HEPATITIS C INHIBITOR COMPOUNDS” (priority 2009, published 2011)
Read-outs that look alike come from different tables or passages of the source.

How the values were obtained:
[1] = test system: HCV genotype 1a (strain H77) subgenomic replicon with NS3 resistance mutation R155K in Huh-7 cells; assay: HCV replicon RNA replication assay (NS3 protease variants), genotype 1a R155K; type: cell-based; settings: Hepatitis C virus
[2] = test system: HCV genotype 1b (Con-1) subgenomic replicon with NS3 resistance mutation D168V in Huh-7 cells; assay: HCV replicon RNA replication assay (NS3 protease variants), genotype 1b D168V; type: cell-based; settings: Hepatitis C virus
[3] = Huh-7, 72 h, read-out: R155K 1a EC50 (nM)
[4] = Huh-7, 72 h, read-out: D168V 1b EC50 (nM)

Row | Structure (SMILES) | EC50 [1, 3] | EC50 [2, 4] | EC50 ([1]; Huh-7, read-out: R155K 1a Ec50 (nM)) | EC50 ([2]; Huh-7, read-out: D168V 1b Ec50 (nM))
1 | COc1ccc2c(O[C@@H]3C[C@H]4C(=O)N[C@]5(C(=O)NS(=O)(=O)C6CC6)C[C@H]5/C=C\CCCCC[C@H](NC(=O)c5ccc(C)s5)C(=O)N4C3)cc(OCC(F)(F)F)nc2c1C [Compound 1035, (2R,6S,12Z,13aS,14aR,16aS)-N-(cyclopropylsulfonyl)-2-{[7-methoxy-8-methyl-2-(2,2,2-trifluoroethoxy)quinolin-4-yl)oxy}-6-{[(5-methylthiophen-2-yl)carbonyl]amino}-5,16-dioxo-1,2,3,6,7,8,9,10,11,13a,14,15,16,16a-tetradecahydrocyclopropa[e]pyrrolo[1,2-a][1,4]diazacyclopentadecine-14a(5H)-carboxamide] | 8.2 nM | 0.77 nM |  | 
2 | CCOc1cc(O[C@@H]2C[C@H]3C(=O)N[C@]4(C(=O)NS(=O)(=O)C5(C)CC5)C[C@H]4/C=C\CCCCC[C@H](NC(=O)c4ccn(C)n4)C(=O)N3C2)c2ccc(OC)c(C)c2n1 [Compound 1030, (2R,6S,12Z,13aS,14aR,16aS)-2-[(2-ethoxy-7-methoxy-8-methylquinolin-4-yl)oxy]-N-[(1-methylcyclopropyl)sulfonyl]-6-{[(1-methyl-1H-pyrazol-3-yl)carbonyl]amino}-5,16-dioxo-1,2,3,6,7,8,9,10,11,13a,14,15,16,16a-tetradecahydrocyclopropa[e]pyrrolo[1,2-a][1,4]diazacyclopentadecine-14a(5H)-carboxamide] | 6.3 nM | 0.38 nM |  | 
3 | COc1ccc2c(O[C@@H]3C[C@H]4C(=O)N[C@]5(C(=O)NS(=O)(=O)C6(C)CC6)C[C@H]5/C=C\CCCCC[C@H](NC(=O)c5ccn(C(C)C)n5)C(=O)N4C3)cc(OC(C)C)nc2c1C [Compound 1021, (2R,6S,12Z,13aS,14aR,16aS)-2-{[7-methoxy-8-methyl-2-(propan-2-yloxy)quinolin-4-yl]oxy}-N-[(1-methylcyclopropyl)sulfonyl]-5,16-dioxo-6-({[1-(propan-2-yl)-1H-pyrazol-3-yl]carbonyl}amino)-1,2,3,6,7,8,9,10,11,13a,14,15,16,16a-tetradecahydrocyclopropa[e]pyrrolo[1,2-a][1,4]diazacyclopentadecine-14a(5H)-carboxamide] | 4.3 nM | 0.24 nM |  | 
4 | COc1ccc2c(O[C@@H]3C[C@H]4C(=O)N[C@]5(C(=O)NS(=O)(=O)C6CC6)C[C@H]5/C=C\CCCCC[C@H](NC(=O)N5CC(F)C5)C(=O)N4C3)cc(OC(C)C)nc2c1C [Compound 2007, (2R,6S,12Z,13aS,14aR,16aS)-N-(cyclopropylsulfonyl)-6-{[(3-fluoroazetidin-1-yl)carbonyl]amino}-2-{[7-methoxy-8-methyl-2-(propan-2-yloxy)quinolin-4-yl]oxy}-5,16-dioxo-1,2,3,6,7,8,9,10,11,13a,14,15,16,16a-tetradecahydrocyclopropa[e]pyrrolo[1,2-a][1,4]diazacyclopentadecine-14a(5H)-carboxamide] | 9 nM | 0.71 nM |  | 
5 | COc1ccc2c(O[C@@H]3C[C@H]4C(=O)N[C@]5(C(=O)NS(=O)(=O)C6CC6)C[C@H]5/C=C\CCCCC[C@H](NC(=O)c5ccn(CC(=O)N(C)C)n5)C(=O)N4C3)cc(OC(C)C)nc2c1C [Compound 1002, (2R,6S,12Z,13aS,14aR,16aS)-N-(cyclopropylsulfonyl)-6-[({1-[2-(dimethylamino)-2-oxoethyl]-1H-pyrazol-3-yl}carbonyl)amino]-2-{[7-methoxy-8-methyl-2-(propan-2-yloxy)quinolin-4-yl]oxy}-5,16-dioxo-1,2,3,6,7,8,9,10,11,13a,14,15,16,16a-tetradecahydrocyclopropa[e]pyrrolo[1,2-a][1,4]diazacyclopentadecine-14a(5H)-carboxamide] | 2.6 nM | 3 nM |  | 
6 | COc1ccc2c(O[C@@H]3C[C@H]4C(=O)N[C@]5(C(=O)NS(=O)(=O)C6CC6)C[C@H]5/C=C\CCCCC[C@H](NC(=O)c5cc(C)n(C)n5)C(=O)N4C3)cc(OC(C)C)nc2c1C [Compound 1034, (2R,6S,12Z,13aS,14aR,16aS)-N-(cyclopropylsulfonyl)-6-{[(1,5-dimethyl-1H-pyrazol-3-yl)carbonyl]amino}-2-{[7-methoxy-8-methyl-2-(propan-2-yloxy)quinolin-4-yl]oxy}-5,16-dioxo-1,2,3,6,7,8,9,10,11,13a,14,15,16,16a-tetradecahydrocyclopropa[e]pyrrolo[1,2-a][1,4]diazacyclopentadecine-14a(5H)-carboxamide] | 7.7 nM | 0.67 nM |  | 
7 | CCOc1cc(O[C@@H]2C[C@H]3C(=O)N[C@]4(C(=O)NS(=O)(=O)C5CC5)C[C@H]4/C=C\CCCCC[C@H](NC(=O)c4ccc(COC)s4)C(=O)N3C2)c2ccc(OC)c(C)c2n1 [Compound 1014, (2R,6S,12Z,13aS,14aR,16aS)-N-(cyclopropylsulfonyl)-2-[(2-ethoxy-7-methoxy-8-methylquinolin-4-yl)oxy]-6-({[5-(methoxymethyl)thiophen-2-yl]carbonyl}amino)-5,16-dioxo-1,2,3,6,7,8,9,10,11,13a,14,15,16,16a-tetradecahydrocyclopropa[e]pyrrolo[1,2-a][1,4]diazacyclopentadecine-14a(5H)-carboxamide] | 8.3 nM | 0.31 nM |  | 
8 | COc1ccc2c(O[C@@H]3C[C@H]4C(=O)N[C@]5(C(=O)NS(=O)(=O)C6(C)CC6)C[C@H]5/C=C\CCCCC[C@H](NC(=O)c5ccn(C)n5)C(=O)N4C3)cc(OC3CCC3)nc2c1C [Compound 1022, (2R,6S,12Z,13aS,14aR,16aS)-2-{[2-(cyclobutyloxy)-7-methoxy-8-methylquinolin-4-yl]oxy}-N-[(1-methylcyclopropyl)sulfonyl]-6-{[(1-methyl-1H-pyrazol-3-yl)carbonyl]amino}-5,16-dioxo-1,2,3,6,7,8,9,10,11,13a,14,15,16,16a-tetradecahydrocyclopropa[e]pyrrolo[1,2-a][1,4]diazacyclopentadecine-14a(5H)-carboxamide] | 6.8 nM | 0.24 nM |  | 
9 | COc1ccc2c(O[C@@H]3C[C@H]4C(=O)N[C@]5(C(=O)NS(=O)(=O)C6CC6)C[C@H]5/C=C\CCCCC[C@H](NC(=O)c5cnn(C)n5)C(=O)N4C3)cc(OC(C)C)nc2c1C [Compound 1013, (2R,6S,12Z,13aS,14aR,16aS)-N-(cyclopropylsulfonyl)-2-{[7-methoxy-8-methyl-2-(propan-2-yloxy)quinolin-4-yl]oxy}-6-{[(2-methyl-2H-1,2,3-triazol-4-yl)carbonyl]amino}-5,16-dioxo-1,2,3,6,7,8,9,10,11,13a,14,15,16,16a-tetradecahydrocyclopropa[e]pyrrolo[1,2-a][1,4]diazacyclopentadecine-14a(5H)-carboxamide] | 7.8 nM | 0.52 nM |  | 
10 | COc1ccc2c(O[C@@H]3C[C@H]4C(=O)N[C@]5(C(=O)NS(=O)(=O)C6(C)CC6)C[C@H]5/C=C\CCCCC[C@H](NC(=O)N5CC(C)(C)C5)C(=O)N4C3)cc(OC(C)C)nc2c1C [Compound 2021, (2R,6S,12Z,13aS,14aR,16aS)-6-{[(3,3-dimethylazetidin-1-yl)carbonyl]amino}-2-{[7-methoxy-8-methyl-2-(propan-2-yloxy)quinolin-4-yl]oxy}-N-[(1-methylcyclopropyl)sulfonyl]-5,16-dioxo-1,2,3,6,7,8,9,10,11,13a,14,15,16,16a-tetradecahydrocyclopropa[e]pyrrolo[1,2-a][1,4]diazacyclopentadecine-14a(5H)-carboxamide] | 3 nM | 1.6 nM |  | 
11 | CC(C)(C)OC(=O)N[C@H]1CCCCC/C=C\C2C[C@@]2(C(=O)NS(=O)(=O)C2CC2)NC(=O)[C@@H]2C[C@@H](OC(=O)N3Cc4cccc(F)c4C3)CN2C1=O (stereo partly shown) [reference compound] |  |  | 690 nM | 120 nM
12 | COc1ccc2c(O[C@@H]3C[C@H]4C(=O)N[C@]5(C(=O)NS(=O)(=O)C6(C)CC6)C[C@H]5/C=C\CCCCC[C@H](NC(=O)c5ccn(C)n5)C(=O)N4C3)cc(OC(C)C)nc2c1OC [Compound 1005, (2R,6S,12Z,13aS,14aR,16aS)-2-{[7,8-dimethoxy-2-(propan-2-yloxy)quinolin-4-yl]oxy}-N-[(1-methylcyclopropyl)sulfonyl]-6-{[(1-methyl-1H-pyrazol-3-yl)carbonyl]amino}-5,16-dioxo-1,2,3,6,7,8,9,10,11,13a,14,15,16,16a-tetradecahydrocyclopropa[e]pyrrolo[1,2-a][1,4]diazacyclopentadecine-14a(5H)-carboxamide] | 2.5 nM | 2 nM |  | 
13 | COc1ccc2c(O[C@@H]3C[C@H]4C(=O)N[C@]5(C(=O)NS(=O)(=O)C6(C)CC6)C[C@H]5/C=C\CCCCC[C@H](NC(=O)N5CCC5)C(=O)N4C3)cc(OC3CC3)nc2c1C [Compound 2010, (2R,6S,12Z,13aS,14aR,16aS)-6-[(azetidin-1-ylcarbonyl)amino]-2-{[2-(cyclopropyloxy)-7-methoxy-8-methylquinolin-4-yl]oxy}-N-[(1-methylcyclopropyl)sulfonyl]-5,16-dioxo-1,2,3,6,7,8,9,10,11,13a,14,15,16,16a-tetradecahydrocyclopropa[e]pyrrolo[1,2-a][1,4]diazacyclopentadecine-14a(5H)-carboxamide] | 6.4 nM | 0.66 nM |  | 
14 | COc1ccc2c(O[C@@H]3C[C@H]4C(=O)N[C@]5(C(=O)NS(=O)(=O)C6CC6)C[C@H]5/C=C\CCCCC[C@H](NC(=O)c5ccn(C(F)F)n5)C(=O)N4C3)cc(OC(C)C)nc2c1C [Compound 1027, (2R,6S,12Z,13aS,14aR,16aS)-N-(cyclopropylsulfonyl)-6-({[1-(difluoromethyl)-1H-pyrazol-3-yl]carbonyl}amino)-2-{[7-methoxy-8-methyl-2-(propan-2-yloxy)quinolin-4-yl]oxy}-5,16-dioxo-1,2,3,6,7,8,9,10,11,13a,14,15,16,16a-tetradecahydrocyclopropa[e]pyrrolo[1,2-a][1,4]diazacyclopentadecine-14a(5H)-carboxamide] | 8.4 nM | 0.35 nM |  | 
